From patent publication US20220380314A1, “SUBSTITUTED, SATURATED AND UNSATURATED N-HETEROCYCLIC CARBOXAMIDES AND RELATED COMPOUNDS FOR THEIR USE IN THE TREATMENT OF MEDICAL DISORDERS” (Bial - R&D Investments, S.A., priority 2019, published 2022)
≈ marks a conversion by molar mass, not a printed value. Where two headings read alike, the source gives them in different places.

Columns and labels:
[1] = biological target: T1, acid ceramidase (hACR) (Homo sapiens, UniProt Q13510); assay: Acid ceramidase inhibition, biochemical fluorescent assay with cell lysates overexpressing acid ceramidase, substrate Rbm14-12
T1 construct: expressed in transfected cells; cell lysate used
T1 sequence (Q13510 143-395 limits assumed): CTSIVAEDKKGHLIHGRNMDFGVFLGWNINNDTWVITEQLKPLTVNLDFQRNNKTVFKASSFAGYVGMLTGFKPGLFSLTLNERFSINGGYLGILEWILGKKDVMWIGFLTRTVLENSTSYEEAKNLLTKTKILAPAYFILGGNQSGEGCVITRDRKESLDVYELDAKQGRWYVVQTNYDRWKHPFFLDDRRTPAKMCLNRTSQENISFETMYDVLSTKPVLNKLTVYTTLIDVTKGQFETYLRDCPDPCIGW
T1 sequence (Q13510 22-142 limits assumed): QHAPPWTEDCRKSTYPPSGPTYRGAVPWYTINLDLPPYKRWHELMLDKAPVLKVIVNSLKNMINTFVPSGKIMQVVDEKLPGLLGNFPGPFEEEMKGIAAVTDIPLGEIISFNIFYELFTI
In short: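 Enzyme source was lysate (10 µg protein) from cells overexpressing acid ceramidase, preincubated 1 hr at RT with compound dose series in 25 mM NaAc, 100 mM NaCl, pH 4.5. Rbm14-12 (6.3 μM final) reacted 1 hr at RT; stop buffer (methanol, NaIO4, glycine, pH 10.6) 1 hr, fluorescence ex360/em446; IC50 from four-parameter fit.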

[2] = Compound solubility in water; assay type: physicochemical
[3] = cell lysates overexpressing acid ceramidase, 1 hr preincubation at RT, pH 4.5, substrate Rbm14-12 6.3 μM, read-out: hACR IC50

| SMILES | IC50 [1, 3] [µM] | solubility [2] [µM] | IC50 [1] [µM] |
| --- | --- | --- | --- |
| CC1(C)CCc2c(C#N)cccc2N1C(=O)NCCc1ccccc1 [Example 47, 5-cyano-2,2-dimethyl-N-phenethyl-3,4-dihydroquinoline-1(2H)-carboxamide] | 0.2 to 1 | 1.7 (≈ 0.567 µg/mL) | – |
| COc1ccc(C2COCC(C)(C)N2C(=O)NCC2CCOCC2)cc1 (stereo not drawn) [Example 145, 5-(4-Methoxyphenyl)-3,3-dimethyl-N-(tetrahydropyran-4-ylmethyl)morpholine-4-carboxamide] | – | 91.3 (≈ 33.1 µg/mL) | 0.2 to 1 |
| CC1(C)CCc2ccc(N3CCOCC3)cc2N1C(=O)NCCc1ccccc1 [Example 10, 2,2-Dimethyl-7-morpholino-N-phenethyl-3,4-dihydroquinoline-1(2H)-carboxamide] | > 1 | 6.7 (≈ 2.64 µg/mL) | – |
| CC1(C)COc2ccccc2N1C(=O)NCCc1ccccc1 [Example 16, 3,3-Dimethyl-N-phenethyl-2H-benzo[b][1,4]oxazine-4(3H)-carboxamide] | > 1 | 3.1 (≈ 0.962 µg/mL) | – |
| CCCCNC(=O)N1CCC(OC2CCN(C)CC2)CC1(C)C (stereo not drawn) [Example 39, N-Butyl-2,2-dimethyl-4-((1-methylpiperidin-4-yl)oxy)piperidine-1-carboxamide] | > 1 | 34.8 (≈ 11.3 µg/mL) | – |
| CCCCCNC(=O)N1[C@H](C)CN(C2CC2)C[C@@H]1C [Example 115, (2S,6R)-4-cyclopropyl-2,6-dimethyl-N-pentylpiperazine-1-carboxamide] | < 0.2 | 69.1 (≈ 18.5 µg/mL) | – |
| CC1(C)CC(N2CCC(F)(F)CC2)CCN1C(=O)NCCCCc1ccccc1 (stereo not drawn) [Example 86, 4-(4,4-Difluoro-1-piperidyl)-2,2-dimethyl-N-(4-phenylbutyl)piperidine-1-carboxamide] | < 0.2 | 31 (≈ 12.6 µg/mL) | – |
| CCOCCNC(=O)N1CCC(c2ccccc2)CC1(C)C (stereo not drawn) [Example 77, N-(2-Ethoxyethyl)-2,2-dimethyl-4-phenylpiperidine-1-carboxamide] | > 1 | 64.3 (≈ 19.6 µg/mL) | – |
| C=CCCCCNC(=O)N1CCC2(CCCCO2)CC1(C)C (stereo not drawn) [Example 44, N-(Hex-5-en-1-yl)-8,8-dimethyl-1-oxa-9-azaspiro[5.5]undecane-9-carboxamide] | 0.2 to 1 | 20.8 (≈ 6.42 µg/mL) | – |
| COC1CC(C)(C)N(C(=O)NCCc2ccccc2)c2ccccc21 (stereo not drawn) [Example 19, 4-Methoxy-2,2-dimethyl-N-phenethyl-3,4-dihydroquinoline-1(2)-carboxamide] | 0.2 to 1 | 6.5 (≈ 2.2 µg/mL) | – |
| O=C(NCCc1ccccc1)N1CCCCC12CCCC2 [Example 45, N-Phenethyl-6-azaspiro[4.5]decane-6-carboxamide] | 0.2 to 1 | 6 (≈ 1.72 µg/mL) | – |
| Cn1ccnc1-c1ccc2c(c1)N(C(=O)NCCc1ccccc1)C(C)(C)CC2 [Example 12, 2,2-Dimethyl-7-(1-methyl-1H-imidazol-2-yl)-N-phenethyl-3,4-dihydroquinoline-1(2H)-carboxamide] | > 1 | 26.6 (≈ 10.3 µg/mL) | – |
